Laboratory results as given in patent publication US20120083471A1, “Novel Compounds, Pharmaceutical Compositions Containing Same, Methods of Use for Same, and Methods for Preparing Same” (priority 2008, published 2012).
Entries after “also recorded” stand apart in the source; their conditions may differ.

Key:
Assay type in all cases: in vivo, mouse
[1] = tested on: DIO mice; experiment: 10 d FSG67 treatment of DIO mice with Q-NMR assessment of adiposity
Method: Q-NMR assessment of adiposity. Following 10 days of FSG67 treatment or vehicle by ip administration, the DIO mice were euthanized and carcasses were stored at −80° C. Carcasses were thawed for Q-NMR analysis. Measurement of fat, lean, and water mass was performed using an EchoMRI-100™ (Echo Medical Systems, Houston, Tex.) in the Molecular and Comparative Pathobiology Phenotyping Core.
Since FSG67 increased fatty acid oxidation and reduced food intake in DIO mice, we next used Q-NMR analysis to measure lean, fat and water mass in FSG67 treated and control mice to determine the composition of the tissue loss with FSG67 treatment. In an additional chronic treatment experiment, 10 DIO mice were treated with FSG67 (5 mg/kg/d, ip) and 10 received vehicle for 10 days. The FSG67 treated mice lost 6.1±0.9 g (13.1±1.9%) while vehicle controls lost 1.1±0.4 g (2.3±0.8%) (p<0.0001. 2-way ANOVA). […] At the conclusion of the experiment, the FSG67 treated mice weighed 4.4 g less than the vehicle controls, which could be accounted for by the 4.0 g difference in fat mass. Thus, GPAT inhibition selectively reduces adiposity in DIO mice.

[2] = tested on: lipogenic gene expression; experiment: Real-time RT-PCR gene expression in liver and white adipose tissue of 16 d treated DIO mice
Method: Real-time RT-PCR. Hypothalamus, liver, and WAT of DIO and lean mice were harvested and immediately frozen in liquid nitrogen. Total RNA was isolated and real-time quantitative RT-PCR was performed as previously described (13). Gene-specific primer pairs were designed using Primer3 software (http://www-genome.wi.mit.edu/cgi-bin/primer/primer3_www.cgi/). The sequences of the primer pairs are listed in Supplemental Data Table 1.
To further explore the mechanism responsible for the reduction in adipose tissue mass, we used real-time RT-PCR to measure the expression of the following key lipogenic genes in white adipose tissue from vehicle control, pair-fed, and FSG67 treated DIO mice from the second indirect calorimetry trial (see FIG. 12c): fatty acid synthase (FAS), responsible for the de novo reductive synthesis of fatty acid 13, acetyl-CoA carboxylase 1 (ACC1), the cytoplasmic isoform of ACC expressed in lipogenic organs that synthesizes malonyl-CoA used as a substrate of FAS for fatty acid synthesis 14, peroxisome proliferator-activated receptor gamma (PPARγ) a key transcription factor for adipogenesis 15, lipid partitioning 16, and postprandial lipid storage 17, and GPAT. […] (FIG. 19). Thus, pharmacological GPAT inhibition not only increases fatty acid oxidation and reduces food intake, but up-regulates UCP2 in liver and white adipose tissue while down-regulating lipogenic gene expression in white adipose tissue, all of which should favor a selective decrease in adiposity. […]

[3] = tested on: hypothalamic neuropeptide expression; experiment: Real-time RT-PCR of hypothalamic neuropeptides in DIO mice
Method: (§1) For acute studies, 6 DIO or lean mice were treated with a single dose of FSG67 (20 mg/kg, i.p.) approximately 3 hrs past lights-on. Animal weights and food consumption were measured 18 h after treatment. Following euthanization, the hypothalmuses were harvested to measure orexigenic and anorexigenic neuropeptide gene expression. In the chronic studies, DIO mice, 4-10 animals per group, were treated daily with FSG67 (5 mg/kg, i.p.) or with RMPI vehicle for the days indicated. Body weight and food intake were measured daily. In one study, a cohort of mice was pair-fed with amounts consumed by the FSG67-treated animals and mice were monitored with indirect calorimetry (Oxymax Equal Flow System®, Columbus Instruments, Columbus, Ohio). Measurements of VO2 (ml/kg/hr) and VCO2 (ml/kg/hr) were performed and recorded every 15 min. The respiratory exchange ratio (RER) was calculated by Oxymax software, version 5.9, and is defined as ratio of VCO2 to VO2 33. After completion of the treatment course, animals were euthanized by CO2 inhalation 4 hrs following the final dose of FSG67. Tissues were harvested immediately for RNA extraction; serum was collected and analyzed for glucose, cholesterol, and triglyceride measurements (Bioanalytics, Gaithersburg, Md.). Fresh liver tissue was snap frozen in liquid N2, sectioned, and stained with hematoxylin and Oil Red O to visualize triglyceride droplets.
Real-time RT-PCR. Hypothalamus, liver, and WAT of DIO and lean mice were harvested and immediately frozen in liquid nitrogen. Total RNA was isolated and real-time quantitative RT-PCR was performed as previously described (13). Gene-specific primer pairs were designed using Primer3 software (http://www-genome.wi.mit.edu/cgi-bin/primer/primer3_www.cgi/). […]
Acute and chronic FSG67 treatment altered hypothalamic neuropeptide expression. Hypothalamic peptide expression was measured in the lean and DIO mice treated with a single dose of FSG67 (see FIG. 11) and in the chronically treated DIO mice (see FIG. 12) to further asses the mechanism responsible for reduced food intake. […]

[4] = tested on: DIO mice; experiment: Serum chemistry and Oil Red O liver histology of 16 d treated DIO mice
Method: as §1
Consistent with the systemic reduction in adiposity, GPAT inhibition reversed hepatic steatosis in DIO mice. […] Cholesterol levels remained unchanged (FIG. 14d). The resolution of the hepatic steatosis in FSG67 treated mice may have contributed to the normalization of blood glucose levels.

[5] = vs control and pair-fed, listed as FSG67

CCCCCCCCCS(=O)(=O)Nc1ccccc1C(=O)O [Compound 15g, 2-(Nonylsulfonamido)benzoic acid]
reduction in fat mass compared to vehicle controls (Q-NMR) ([1]; 5 mg/kg ip daily, 10 d): 4.0 g
lean and water mass (Q-NMR) ([1]; 5 mg/kg ip daily, 10 d, listed as FSG67, 5 mg/kg): no significant change; also recorded: unaffected
final weight difference to vehicle controls ([1]; conclusion of 10 d experiment): 4.4 g
GPAT expression in liver ([2]; listed as FSG67): unaffected
L-CPT-1 expression in liver and WAT ([2]; listed as FSG67): unaffected; also recorded: not affected
UCP2 expression in liver ([2]; vs control): increased
ACC1 expression in white adipose tissue [2, 5]: substantial down-regulation; also recorded: down regulated
FAS expression in white adipose tissue [2, 5]: substantial down-regulation; also recorded: down regulated
GPAT expression in white adipose tissue [2, 5]: substantial down-regulation; also recorded: down regulated
PPARγ expression in white adipose tissue [2, 5]: substantial down-regulation; also recorded: down regulated
UCP2 expression in WAT ([2]; vs pair-fed): increased
ACC1 expression in liver ([2]; vs pair-fed, listed as FSG67): significant reduction; also recorded: reduced
FAS expression in liver ([2]; vs vehicle and pair-fed, listed as FSG67): significant reduction; also recorded: reduced
hypothalamic AGRP, POMC and CART expression ([3]; 16 d treated): unaffected
hypothalamic NPY expression ([3]; 16 d treated, vs vehicle controls, listed as FSG67): significant reduction
hypothalamic AGRP expression ([3]; single dose, vs vehicle controls and food-deprived (data not shown)): significantly increased
liver histology: inflammation, necrosis, hepatocellular injury [4]: No inflammation, necrosis, or hepatocellular injury
reduction in serum triglyceride levels vs pair-fed or vehicle [4]: not statistically significant
serum glucose ([4]; 5 mg/kg ip daily): 153.3 ± 10.5 mg/dL
serum triglyceride ([4]; 5 mg/kg ip daily): 111.3 ± 10.9 mg/dL
hepatic steatosis (Oil red O liver sections) ([4]; listed as FSG67): nearly complete resolution; also recorded: almost complete amelioration of fat accumulation
serum cholesterol levels ([4]; listed as FSG67): unchanged; also recorded: unaffected
